Data set [1] has as its system HEP-G2 cells. In words: cells. The following applies: for EC50 / Emax / EC (Emax): Homo sapiens; for EC50: HepG2, 3 h; for HEP-G2 Tox: human, 3 h. Here is the method: Assay (I): Glucose utilisation in a human hepatocytes cell line (HEP-G2 cells)
The assay measures indirectly the activity of the respiratory chain in HEP-G2 cells by using D-(3-^3H(N))-glucose. The ^3H-proton will first be released during the metabolism of glucose where it will be incorporated into water. The water is thereafter separated from the D-(3-^3H(N))-glucose by evaporation. Finally, the radioactivity in the water is determined using a Topcounter.
HEP-G2 cells obtained from ATCC (Maryland, USA), are cultured in assay medium (MEM medium) with the following addition 1× non-essential amino acids (M7145, 2 mM glutamine, 100 units/ml penicillin and streptomycin, 0.0075% sodium bicarbonate, 1 mM sodium pyrovate and 0.5% BSA (Bovin Serum Albumin, Sigma Missouri, USA)) at 37° C. and 5% CO2. All media are obtained by Gibco (Life Technologies, Maryland, USA) where not otherwise mentioned.
At day zero the cells are harvested using trypsin-EDTA and washed in assay medium using centrifugation. […] The cells are then incubated at 37° C. and 5% CO2 overnight.
(§1) The next day the compounds to be tested are diluted in DMSO (Sigma, Missouri, USA) to 100 times final concentration. They are then diluted to a final concentration in assay medium containing 10 μCi/ml D-(3-^3H(N))-glucose (PerkinElmer Life Sciences Inc., Boston, USA). The medium is removed from the cells and 200 μl of the compound dilutions are added in duplicates. The cells are then incubated for another 3 hours at 37° C. and 5% CO2. Finally the cells are lysed by adding 50 μl 10% TCA (trichloroacetic acid). 300 μl of sterile water is then added to the 24-wells that surrounds the StripPlate wells. The plate is sealed with Top-seal-tape (Packard, PerkinElmer Life Sciences Inc., Boston, USA) and the plate is incubated in a heating cupboard at 50° C. to equilibrium the radioactive water formed in the respiratory chain into the water in the 24-well plate by evaporate. The plates incubate for 8 hours where the heating cupboard is turned off. The top seal is removed when the samples have reached room temperature. One ml scintillation liquid (Packard Microscient, PerkinElmer Life Sciences Inc., Boston, USA) is added to all the samples and the radioactivity is determined using a Topcounter (Packard, PerkinElmer Life Sciences Inc., Boston, USA). Non-specific activity is determined by evaporating 200 μl of the dilution medium containing the D-(3-^3H(N))-glucose into 300 μl sterile water, and total radioactivity is determined by counting 5 μl assay medium with 10 μCi/ml D-(3-^3H(N))-glucose.
The cpm (counts per minute) representing the non-specific radioactivity in the D-(3-^3H(N))-glucose is subtracted from all incubated values. Then mean basal value (samples without any compound added) is subtracted from the values of all stimulated samples (samples added different concentrations of the different test compounds). All these calculations are done using GraphPad Prism 3.0 (GraphPad software, Inc.). The maximal stimulation caused by the test compounds is calculated in percentage of maximal stimulation caused by either DNP or FCCP.
When calculating the concentration-response curve the maximal glucose utilisation stimulated by FCCP or DNP (subtracted non-specific and basal values) is converted to 100% and all the other values are expressed in percentage of this value. Using these percentage values and the compound concentration a concentration-response curve is calculated using sigmoidal dose-response (variable slope) equation (all the calculations are done by GraphPad Prism 3.0 (GraphPad software, Inc.));
Y=Bottom+(Top−Bottom)/(1+10^((LogEC50-X)*slope))
(§2) X is the logarithm of the molar concentration of the test compound.
Y is the degree of stimulation caused by the compound measured as a percentage of the maximal stimulation achieved by use of FCCP or DNP.
The results achieved with these concentrations are used to determine the slope in this area using the following equation: […]

For data set [2], the system named is FSK-4 cells. In words: Assay (IV): Glucose utilisation in FSK-4 cells. Format: cell-based. The settings on record: FSK-4 cells; for EC50: glucose utilisation, 24 hours incubation, read-out: FSK4 EC50; for Emax: maximal efficacy relative to FCCP, read-out: FSK4 Emax (% of FCCP). Here is the method:
Assay (IV): Glucose Utilisation in FSK-4 Cells
The assay measures indirectly the activity of the respiratory chain in FSK-4 cells by using D-(6-^3H(N))-glucose. The ^3H-proton will first be released in the TCA cyclus and transported to the respiratory chain where it will be incorporated into water. The water is thereafter separated from the D-(6-^3H(N))-glucose by evaporation. Finally, the radioactivity in the water is determined using a Topcounter.
FSK-4 cells obtained from ATCC (Maryland, USA), are cultured in growth medium (McCoy's medium with the following addition 100 units/ml penicillin and streptomycin and 10% FCS (fetal calf serum)) at 37° C. and 5% CO2. All media are obtained by Gibco (Life Technologies, Maryland, USA) where not otherwise mentioned.
At day zero the cells are harvested using trypsin-EDTA and washed in assay medium (MEM medium with the following addition 1× non-essential amino acids (M7145, 2 mM glutamin, 100 units/ml pencillin and streptomycin, 0.0075% sodium bicarbonate, 1 mM sodium pyrovate and 2% horse serum) using centrifugation. The cells are plated into single StripPlates wells (Corning B.V.Life Sciences, The Netherlands) that are placed into 24-well plates (Corning B.V.Life Sciences, The Netherlands) with a concentration of 1,5×10^4 cells/100 μl assay medium/well. The cells are then incubated at 37° C. and 5% CO2 overnight.
as §1, with “are diluted to different concentrations in DMSO” for “are diluted in DMSO”, “10 μCi/ml D-(6-^3H(N))-glucose (PerkinElmer Life” for “10 μCi/ml D-(3-^3H(N))-glucose (PerkinElmer Life”, “for another 24 hours at” for “for another 3 hours at”, “10% TCA (tri-chloroacetatic acid). 300” for “10% TCA (trichloroacetic acid). 300”, “containing the D-(6-^3H(N))-glucose into 300” for “containing the D-(3-^3H(N))-glucose into 300”, “10 μCi/ml D-(6-^3H(N))-glucose.” for “10 μCi/ml D-(3-^3H(N))-glucose.”
All calculations are done using GraphPad Prism 3.0 (GraphPad software, Inc.) From concentration-response curves the half maximal concentration (EC50) and maximal efficacy (Emax) are calculated using equation 1.
Y=Bottom+(Top−Bottom)/(1+10^((LogEc50-X)*slope))
as §2
Y is the degree of stimulation caused by the compound measured as percentage of the basal stimulation.
The calculated EC50 value is then used to determine the concentrations used in a study where the Hill slope is calculated.
From the double logarithmic plot of the increase in glucose utilisation and the compound concentration the Hill slope is calculated accordingly to equation 2.
It is presumed, that the maximal increase in the glucose utilisation (as measured in the FSK-4 glucose utilisation assay) is limited by the capacity of the metabolism.

Where [3] appears, read: read-out: HEP-G2 EC50, HEP-G2 cells, glucose utilisation, 3 hours incubation.
Where [4] appears, read: HepG2, read-out: HEP-G2 Emax (% of FCCP), HEP-G2 cells, maximal stimulation relative to FCCP.
The mark [5] stands for this setting: HepG2, read-out: HEP-G2 Emax (μM), HEP-G2 cells, concentration at which Emax is achieved (CEmax).

Like-named read-outs stand apart in the source and are kept apart here.

Regarding `Clc1ccc(-c2cc3ccccc3[nH]2)cc1` [Example 20, 2-(4-Chlorophenyl)-Indole], the EC50 is 50000 nM in data set [1] (setting [3]) and 26000 nM in data set [2]. Moreover, the Emax in data set [1] (setting [4]) turned out to be 55%; in data set [2], 90%. For the same compound, the EC (Emax) in data set [1] (setting [5]) came out at 300 µM.
Taken in the same sequence, the figures for `Cc1c(Br)cc(C(C)(C)C)c(O)c1C(=O)Nc1cc(C(F)(F)F)ccc1Cl` [Example 52, 3-Bromo-5-Tert-Butyl-N-(2-Chloro-5-Trifluoromethyl-Phenyl)-6-Hydroxy-2-Methyl-Benzamide] were 2400 nM, 2500 nM, 95%, 75% and 10 µM.
Taken in the same sequence, the figures for `CCOC(=O)/C(C#N)=C(/C)c1cc(C(C)(C)C)c(O)c(C(C)(C)C)c1` [Example 82, 2-Cyano-3-(3,5-Di-Tert-Butyl-4-Hydroxy-Phenyl)-But-2-Enoic Acid Ethyl Ester] were 10000 nM, 11000 nM, 100%, 90% and 30 µM.
Turning to `CCOP(=O)(OCC)/C(C#N)=C\c1cc(C(C)(C)C)c(O)c(C(C)(C)C)c1` [Example 76, 3-(3,5-Di-Tertbutyl-4-Hydroxybenzylidene)-2-(Diethylphosphonate)-Propenenitrile], the EC50 was determined as 11000 nM in data set [1] (read-out: HEP-G2 EC50) and 3200 nM in data set [2]. For the same compound, the Emax was 90% in data set [1] (HepG2, read-out: HEP-G2 Emax (% of FCCP)) and 150% in data set [2]. For the same compound, the EC (Emax) in data set [1] (HepG2, read-out: HEP-G2 Emax (μM)) worked out at 30 µM.
As to `CCCCCCCC[P+](CCCCCCCC)(CCCCCCCC)Cc1cc(C(C)(C)C)c(O)c(C(C)(C)C)c1.[Br-]` [Example 14, (3,5-Di-Tert-Butyl-4-Hydroxybenzyl)Trioctylphosphonium Bromide], the figures for the EC50 in data set [1] (setting [3]) and in data set [2] were 1100 nM and 200 nM, respectively. In addition, the Emax in data set [1] (setting [4]) and in data set [2] was 100% throughout. Moreover, the EC (Emax) in data set [1] (setting [5]) turned out to be 10 µM. Further, the “HEP-G2 Tox” value in data set [1] is listed as “Tox 0.01 mM”.
In the case of `Cc1c(Br)cc(C(C)(C)C)c(O)c1C(=O)Nc1cc(C(F)(F)F)ccc1C(F)(F)F` [Example 61, N-(2,5-Bis-Trifluoromethyl-Phenyl)-3-Bromo-5-Tert-Butyl-6-Hydroxy-2-Methyl-Benzamide], the figures for the half-maximal effective concentration (EC50) in data set [1] (setting [3]) and in data set [2] were 870 nM and 1100 nM, respectively. Further, the Emax in data set [1] (setting [4]) and in data set [2] was 105% in each case. The EC (Emax) in data set [1] (setting [5]) was determined as 10 µM.
With `Cc1ccc(C(C)(C)C)c(O)c1C(=O)Nc1ccc([N+](=O)[O-])cc1Cl` [Example 10], the half-maximal effective concentration (EC50) in data set [1] (setting [3]) worked out at 370 nM; in data set [2], 300 nM. In addition, the results for the Emax in data set [1] (setting [4]) and in data set [2] were 100% and 80%, respectively. Further, the EC (Emax) in data set [1] (setting [5]) came out at 3 µM.
As to `Cc1c(Br)cc(C(C)(C)C)c(O)c1C(=O)Nc1ccc(C(C)C)cc1C(F)(F)F` [Example 63, 3-Bromo-5-Tert-Butyl-6-Hydroxy-N-(4-Isopropyl-2-Trifluoromethyl-Phenyl)-2-Methyl-Benzamide], the EC50 turned out to be 14000 nM in data set [1] (setting [3]) and 19000 nM in data set [2]. Besides, the Emax in data set [1] (setting [4]) is 90%; in data set [2], 55%. In data set [1] (setting [5]), the EC (Emax) turned out to be 100 µM.
Consider `Cc1c(Br)cc(C(C)(C)C)c(O)c1C(=O)Nc1c(Cl)cc([N+](=O)[O-])cc1Cl` [Example 55, 3-Bromo-5-Tert-Butyl-N-(2,6-Dichloro-4-Nitro-Phenyl)-6-Hydroxy-2-Methyl-Benzamide], for which the values for the EC50 in data set [1] (setting [3]) and in data set [2] were 360 nM and 300 nM, respectively. Besides, the Emax was found to be 99% in data set [1] (setting [4]) and 100% in data set [2]. Also, the EC (Emax) in data set [1] (setting [5]) stood at 1 µM.
As to `CC(C)(C)c1cc(/C=C(\C#N)c2ccccn2)cc(C(C)(C)C)c1O` [Example 74, 3-(3,5-Di-Tert-Butyl-4-Hydroxy-Phenyl)-2-Pyridin-2-Yl-Acrylonitrile], the EC50 was found to be 16000 nM in data set [1] (setting [3]) and 15000 nM in data set [2]. Also, the values for the Emax in data set [1] (setting [4]) and in data set [2] were 80% and 120%, respectively. In data set [1] (setting [5]), the EC (Emax) was determined as 100 µM.
As to `CCCC[P+](CCCC)(CCCC)Cc1cc(C(C)(C)C)c(O)c(C(C)(C)C)c1.[Br-]` [Example 13, (3,5-Di-Tert-Butyl-4-Hydroxybenzyl)Tributylphosphonium Bromide], the results for the EC50 in data set [1] (setting [3]) and in data set [2] were 2900 nM and 1000 nM, respectively. For the same compound, the Emax in data set [1] (setting [4]) worked out at 70%; in data set [2] it was 85%. Moreover, the EC (Emax) in data set [1] (setting [5]) came to 10 µM. Moreover, the “HEP-G2 Tox” value in data set [1] is on record as “Tox 0.03 mM”.

The EC50 is the midpoint of the concentration-response curve. The term Emax denotes the size of the effect at its maximum, as opposed to the concentration needed.

For the origin of these results see US20040138301A1, “Chemical uncouplers for the treatment of obesity” (priority 2002, published 2004).
